Results taken from US20060107336A1, “Nonbacterial prostatitis model animal” (priority 2002, published 2006).
Where two headings read alike, the source gives them in different places.

Columns and labels:
[1] = system: prostate tissue of male Wistar rats
Procedure: 18 male Wistar rats at the age of 12-weeks-old were divided into 3 groups (test group, comparative group, and negative control group; 6 rats per group). The right inguinal region of each test group rat was incised under ether anesthesia to expose the prostate. Beneath the prostatic capsule of the right lateral lobe was injected 100 μl of sterilized 0.4 N hydrochloric acid physiological saline (a solution prepared by diluting hydrochloric acid with physiological saline to a concentration of 0.4 N, the same applies hereinbelow). The right inguinal region of each comparative group rat was incised in the same manner under ether anesthesia, and 100 μl of 0.4 N hydrochloric acid physiological saline was injected into the right vas deferens thus exposed. The peritoneum and the skin of the rats were sutured with a suture thread. To prevent operational infection, a kanamycin-containing aqueous solution was sprayed onto the site of the incision, and a physiological saline solution containing cefazolin sodium was injected into the femoral muscle in an amount of 7 mg/kg body weight. The control group refers to untreated rats (normal rats) subjected to neither an incisional operation nor hydrochloric acid injection.
The prostate, bladder and urethra were sampled from the rats of respective groups prepared in 1-1) above (test group, comparative group, and control group) to prepare tissue specimens thereof for the evaluation of change in tissue.
Specifically, the rats of the test group and the comparative group were euthanized by exsanguination under ether anesthesia 6 hours (2 rats per group), 4 days (2 rats per group), or 8 days (2 rats per group) after hydrochloric acid injection. The prostate, bladder and urethral tissues were taken out as a lump, and the tissues were fixed with 4% paraformaldehyde. The rats of the control group were subjected to the same treatment.
The frozen blocks were sliced in a cryostat to a thickness of 5 to 6 μm to prepare slide preparations of the tissue sections. The slide preparations were stained with hematoxylin-eosin (H.E), and the appearance of the tissues was observed under a microscope.
In the figures, sample code N refers to the tissue samples obtained from the control group (nonhydrochloric acid-injected rats), and sample code P refers to the tissue samples obtained from the test group (rats injected with hydrochloric acid beneath the prostatic capsules).
In the figures, sample code Y refers to tissue samples obtained from the comparative group (rats injected with hydrochloric acid into the vas deferens).

[2] = system: bladder function of male Wistar rats; conditions: 8th day of rearing
[3] = 100 μl 0.4 N beneath prostatic capsule
[4] = 100 μl 0.4 N into the vas deferens, 6 hours after injection
[5] = 0.1, 0.2 and 0.4 N beneath prostatic capsule
[6] = 100 μl 0.2 N beneath prostatic capsule

With Cl [hydrochloric acid] the “urethral and bladder tissue damage extending from the prostate” value [1, 3] was “no evidence of tissue damage”, the “localized bleeding and nerve cell tigrolysis in the stroma of the prostate dorsolateral lobes” value ([1]; 100 μl 0.4 N beneath prostatic capsule, 6 hours after injection) was “slight (+) to moderate (++)” and the “hyperplasia and fibrosis of the fibroblast, and inflammatory cellular infiltration in the stroma of the prostate dorsolateral lobes” value ([1]; 100 μl 0.4 N beneath prostatic capsule, 4 days after injection) was “moderate (++) to severe (+++)”. The prostate tissue damage ([1]; 100 μl 0.4 N beneath prostatic capsule, 8 days after injection) was “still observable”, the “loss of glandular epithelial cells, peeling of epithelium, degeneration/necrosis, and presence of erythrocytes at the glandular cavities of the prostate dorsolateral lobes” value ([1]; 100 μl 0.4 N injected beneath prostatic capsule of right lateral lobe, 6 hours after injection) was “slight (+) to moderate (++) to severe (+++)” and the “epithalaxia in the glandular cavities of the prostate dorsolateral lobes” value ([1]; 100 μl 0.4 N injected into the vas deferens (comparative group), 6 hours after injection) was “severe (+++)”. The “bleeding in the stromata of the glandular tissues of the ampulla ductus deferentis” value [1, 4] was “severe (+++)”, the “epithalaxia, degeneration/necrosis and bleeding in the glandular cavities of the ampulla ductus deferentis” value [1, 4] was “severe (+++)” and the “localized bleeding in the stroma of the prostate dorsolateral lobes” value [1, 4] was “severe (+++)”. The prostate tissue damage ([1]; 100 μl 0.4 N into the vas deferens, 4 days after injection) was “did not exhibit such prostate tissue damage”, the “damage at the glandular tissues of the ampulla ductus deferentis” value ([1]; 100 μl 0.4 N into the vas deferens, at least 4 days after injection) was “did not exhibit such damage” and the “development of prostatitis, pathohistological point of view” value ([1]; injected into the vas deferens of rats (animal model (5))) was “only to a very slight extent”. For the same molecule, the “correlation between concentration and change in the weight of the prostate” value [2, 5] was “no evidence of correlation”, the “ratio of bladder weight to body weight compared with the control group” value [2, 5] was “comparable or significantly higher” and the “ratio of prostate ventral lobe weight to body weight compared with the control group” value [2, 5] was “comparable or significantly higher”. For the same molecule, the “weight of the bladder in relation to concentration injected” value [2, 5] was “increased in accordance with the concentration”, the “volume of residual urine compared with the control group” value ([2]; 100 μl 0.1 N beneath prostatic capsule) was “no residual urine” and the “urination interval compared with the control group” value [2, 6] was “significantly shorter”. For the same molecule, the “volume of residual urine compared with the control group” value [2, 6] was “significantly higher”, the “volume of urine per urination compared with the control group” value [2, 6] was “smaller” and the “urination interval compared with the control group” value [2, 3] was “significantly shorter”. The “volume of urine per urination compared with the control group” value [2, 3] was “smaller”.
